# Assay results as given in PubChem BioAssay AID308 (DTP/NCI, 2004).
# Several values for one entry are separate records, joined by “and”; a condition that tells them apart may be missing. Equal entries are not always repeated. Toxic doses and inconclusive results are not listed.
# System: BDF1 mice, L1210 6-MP/6-TG resistant leukemia ip, survival T/C
# Experiment: NCI In Vivo Anticancer Drug Screen. Data for tumor model L1210 Leukemia resistant to 6-MP and 6-Thioguanine; NSC 755, NSC 752 (intraperitoneal) in B6D2F1 (BDF1) mice
# Conditions: endpoint: mean survival time, higher = longer survival
# Description: The antitumor activity of compounds was measured in mice bearing transplantable tumors. Survival or tumor size were measured and the results are expressed as the measurement made in the treated group (T) divided by the measurement made in the vehicle treated control group (C). The tumor model used in this assay is L1210 Leukemia resistant to 6-MP and 6-Thioguanine; NSC 755, NSC 752 (intraperitoneal) in B6D2F1 (BDF1) mice
# [1] = dose: 37.5 mg/kg/injection, schedule: Q01DX Z (ip), vehicle: saline
# [2] = dose: 75.0 mg/kg/injection, schedule: Q01DX Z (ip), vehicle: saline
# [3] = dose: 100.0 mg/kg/injection, schedule: Q01DX Z (ip), vehicle: saline
# [4] = dose: 12.5 mg/kg/injection, schedule: Q01DX015 (ip), vehicle: carboxymethylcellulose (CMC)
# [5] = dose: 25.0 mg/kg/injection, schedule: Q01DX015 (ip), vehicle: carboxymethylcellulose (CMC)
# [6] = dose: 50.0 mg/kg/injection, schedule: Q01DX015 (ip), vehicle: carboxymethylcellulose (CMC)
# [7] = dose: 25.0 mg/kg/injection, schedule: Q01DX Z (ip), vehicle: carboxymethylcellulose (CMC)
# [8] = dose: 100.0 mg/kg/injection, schedule: Q01DX Z (ip), vehicle: carboxymethylcellulose (CMC)
# [9] = dose: 7.5 mg/kg/injection, schedule: Q01DX Z (ip), vehicle: carboxymethylcellulose (CMC)
# [10] = dose: 10.0 mg/kg/injection, schedule: Q01DX Z (ip), vehicle: carboxymethylcellulose (CMC)
# [11] = dose: 20.0 mg/kg/injection, schedule: Q01DX Z (ip), vehicle: carboxymethylcellulose (CMC)
# [12] = dose: 40.0 mg/kg/injection, schedule: Q01DX Z (ip), vehicle: carboxymethylcellulose (CMC)
# [13] = dose: 125.0 mg/kg/injection, schedule: Q01DX Z (ip), vehicle: carboxymethylcellulose (CMC)
# [14] = dose: 250.0 mg/kg/injection, schedule: Q01DX Z (ip), vehicle: carboxymethylcellulose (CMC)
compound,measurement,setting,value
O=P1(N(CCCl)CCCl)NCCCO1 (configuration not stated),T/C,[1],153 % of control
same,T/C,[2],94 % of control
same,T/C,[3],101 % of control
O=NN(CCCl)C(=O)NCCCl,T/C,"dose: 2.0 mg/kg/injection, schedule: Q01DX015 (ip), vehicle: saline",166 % of control and 181 % of control and 196 % of control
same,T/C,"dose: 2.6 mg/kg/injection, schedule: Q01DX015 (ip), vehicle: saline",168 % of control
same,T/C,"dose: 6.0 mg/kg/injection, schedule: Q01DX015 (ip), vehicle: saline",156 % of control
same,T/C,"dose: 8.0 mg/kg/injection, schedule: Q01DX015 (ip), vehicle: saline",151 % of control and 157 % of control and 185 % of control
same,T/C,"dose: 9.0 mg/kg/injection, schedule: Q01DX015 (ip), vehicle: saline",164 % of control
same,T/C,"dose: 13.5 mg/kg/injection, schedule: Q01DX015 (ip), vehicle: saline",123 % of control
CN(C)/N=N/c1nc[nH]c1C(N)=O,T/C,[4],104 % of control
same,T/C,[5],107 % of control
same,T/C,[6],112 % of control
same,T/C,"dose: 200.0 mg/kg/injection, schedule: Q01DX015 (ip), vehicle: carboxymethylcellulose (CMC)",115 % of control
CC(=O)CSc1ncnc2nc[nH]c12,T/C,"dose: 3.12 mg/kg/injection, schedule: Q01DX015 (ip), vehicle: carboxymethylcellulose (CMC)",93 % of control
same,T/C,"dose: 6.25 mg/kg/injection, schedule: Q01DX015 (ip), vehicle: carboxymethylcellulose (CMC)",98 % of control
same,T/C,[4],103 % of control
same,T/C,[5],96 % of control
same,T/C,[6],96 % of control
same,T/C,"dose: 62.0 mg/kg/injection, schedule: Q01DX015 (ip), vehicle: carboxymethylcellulose (CMC)",100 % of control
same,T/C,"dose: 125.0 mg/kg/injection, schedule: Q01DX015 (ip), vehicle: carboxymethylcellulose (CMC)",100 % of control
same,T/C,"dose: 250.0 mg/kg/injection, schedule: Q01DX015 (ip), vehicle: carboxymethylcellulose (CMC)",95 % of control
CN(C)C(=S)N=Nc1c(O)[nH]c2ccccc12,T/C,[7],107 % of control
same,T/C,"dose: 50.0 mg/kg/injection, schedule: Q01DX Z (ip), vehicle: carboxymethylcellulose (CMC)",105 % of control
same,T/C,[8],91 % of control
Cn1cnc([N+](=O)[O-])c1Sc1nc(N)nc2nc[nH]c12,T/C,[9],95 % of control
same,T/C,[10],92 % of control
same,T/C,"dose: 15.0 mg/kg/injection, schedule: Q01DX Z (ip), vehicle: carboxymethylcellulose (CMC)",90 % of control
same,T/C,[11],89 % of control
CCCn1cnc2c(=S)nc[nH]c21,T/C,[4],97 % of control
same,T/C,[5],95 % of control
same,T/C,[6],101 % of control
same,T/C,"dose: 100.0 mg/kg/injection, schedule: Q01DX015 (ip), vehicle: carboxymethylcellulose (CMC)",96 % of control
CC1CCOS(=O)O1 (configuration not stated),T/C,"dose: 12.5 mg/kg/injection, schedule: Q01DX Z (ip), vehicle: saline",101 % of control
same,T/C,"dose: 25.0 mg/kg/injection, schedule: Q01DX Z (ip), vehicle: saline",106 % of control
same,T/C,[1],97 % of control
same,T/C,[2],99 % of control
same,T/C,[3],91 % of control
Nc1ccc(OC(=O)Oc2ccc(N)cc2)cc1,T/C,"dose: 62.0 mg/kg/injection, schedule: Q01DX Z (ip), vehicle: saline",95 % of control
same,T/C,"dose: 125.0 mg/kg/injection, schedule: Q01DX Z (ip), vehicle: saline",152 % of control
same,T/C,"dose: 250.0 mg/kg/injection, schedule: Q01DX Z (ip), vehicle: saline",103 % of control
O=C(Nc1ccc(C2=NCCN2)cc1)c1ccc(C(=O)Nc2ccc(C3=NCCN3)cc2)c([N+](=O)[O-])c1,T/C,"dose: 0.5 mg/kg/injection, schedule: Q01DX Z (ip), vehicle: methylcellulose (MC)",98 % of control
same,T/C,"dose: 1.0 mg/kg/injection, schedule: Q01DX Z (ip), vehicle: methylcellulose (MC)",93 % of control
same,T/C,"dose: 2.0 mg/kg/injection, schedule: Q01DX Z (ip), vehicle: carboxymethylcellulose (CMC)",181 % of control
same,T/C,"dose: 2.0 mg/kg/injection, schedule: Q01DX Z (ip), vehicle: methylcellulose (MC)",112 % of control
same,T/C,"dose: 4.0 mg/kg/injection, schedule: Q01DX Z (ip), vehicle: carboxymethylcellulose (CMC)",233 % of control
same,T/C,"dose: 6.0 mg/kg/injection, schedule: Q01DX Z (ip), vehicle: carboxymethylcellulose (CMC)",186 % of control
same,T/C,"dose: 6.0 mg/kg/injection, schedule: Q01DX Z (ip), vehicle: methylcellulose (MC)",224 % of control
same,T/C,"dose: 8.0 mg/kg/injection, schedule: Q01DX Z (ip), vehicle: carboxymethylcellulose (CMC)",124 % of control and 232 % of control
same,T/C,"dose: 12.0 mg/kg/injection, schedule: Q01DX Z (ip), vehicle: carboxymethylcellulose (CMC)",173 % of control
same,T/C,"dose: 27.0 mg/kg/injection, schedule: Q01DX Z (ip), vehicle: carboxymethylcellulose (CMC)",107 % of control
same,T/C,"dose: 27.0 mg/kg/injection, schedule: Q02DX010 (ip), vehicle: saline",224 % of control
same,T/C,"dose: 60.0 mg/kg/injection, schedule: Q02DX010 (ip), vehicle: saline",111 % of control
CCC(=O)OCC1OC(n2cnc3c(=S)nc(N)[nH]c32)C(OC(=O)CC)C1OC(=O)CC (configuration not stated),T/C,"dose: 5.0 mg/kg/injection, schedule: Q01DX Z (ip), vehicle: carboxymethylcellulose (CMC)",109 % of control
same,T/C,[10],117 % of control
same,T/C,[11],109 % of control
same,T/C,[12],103 % of control
O=c1[nH]c(=O)n(C2CC(O)C(CO)O2)cc1I (configuration not stated),T/C,[11],108 % of control
same,T/C,[7],121 % of control
same,T/C,"dose: 30.0 mg/kg/injection, schedule: Q01DX Z (ip), vehicle: carboxymethylcellulose (CMC)",95 % of control
same,T/C,[12],87 % of control
same,T/C,"dose: 60.0 mg/kg/injection, schedule: Q01DX Z (ip), vehicle: carboxymethylcellulose (CMC)",108 % of control
same,T/C,"dose: 75.0 mg/kg/injection, schedule: Q01DX Z (ip), vehicle: carboxymethylcellulose (CMC)",182 % of control
same,T/C,[8],154 % of control
same,T/C,[13],115 % of control
same,T/C,[14],100 % of control
same,T/C,"dose: 375.0 mg/kg/injection, schedule: Q01DX Z (ip), vehicle: carboxymethylcellulose (CMC)",93 % of control
OCn1cnc2c(SC3CCCC3)ncnc21,T/C,"dose: 12.5 mg/kg/injection, schedule: Q01DX009 (ip), vehicle: other",91 % of control
same,T/C,"dose: 50.0 mg/kg/injection, schedule: Q01DX009 (ip), vehicle: other",89 % of control and 93 % of control
O=C1C(NC(=O)C2CCCCC2)=C(N2CC2)C(=O)C(NC(=O)C2CCCCC2)=C1N1CC1,T/C,"dose: 31.0 mg/kg/injection, schedule: Q01DX Z (ip), vehicle: carboxymethylcellulose (CMC)",99 % of control
same,T/C,"dose: 62.5 mg/kg/injection, schedule: Q01DX Z (ip), vehicle: carboxymethylcellulose (CMC)",101 % of control
same,T/C,"dose: 93.0 mg/kg/injection, schedule: Q01DX Z (ip), vehicle: carboxymethylcellulose (CMC)",93 % of control
same,T/C,[13],87 % of control
same,T/C,"dose: 187.0 mg/kg/injection, schedule: Q01DX Z (ip), vehicle: carboxymethylcellulose (CMC)",92 % of control
same,T/C,[14],90 % of control
C[C@@H]1C[C@@H]([C@H](O)CC2CC(=O)NC(=O)C2)C(=O)[C@@H](C)C1,T/C,"dose: 0.93 mg/kg/injection, schedule: Q01DX Z (ip), vehicle: carboxymethylcellulose (CMC)",101 % of control
same,T/C,"dose: 1.87 mg/kg/injection, schedule: Q01DX Z (ip), vehicle: carboxymethylcellulose (CMC)",101 % of control
same,T/C,"dose: 3.75 mg/kg/injection, schedule: Q01DX Z (ip), vehicle: carboxymethylcellulose (CMC)",100 % of control
same,T/C,[9],101 % of control
same,T/C,"dose: 7.5 mg/kg/injection, schedule: Q01DX Z (ip), vehicle: saline",116 % of control
same,T/C,"dose: 15.0 mg/kg/injection, schedule: Q01DX Z (ip), vehicle: saline",114 % of control
same,T/C,"dose: 30.0 mg/kg/injection, schedule: Q01DX Z (ip), vehicle: saline",112 % of control
same,T/C,"dose: 60.0 mg/kg/injection, schedule: Q01DX Z (ip), vehicle: saline",92 % of control
NC(=O)N(CCCl)N=O,T/C,"dose: 0.47 mg/kg/injection, schedule: Q01DX Z (ip), vehicle: saline",220 % of control
same,T/C,"dose: 0.93 mg/kg/injection, schedule: Q01DX Z (ip), vehicle: saline",265 % of control
same,T/C,"dose: 1.25 mg/kg/injection, schedule: Q01DX Z (ip), vehicle: saline",236 % of control
same,T/C,"dose: 1.87 mg/kg/injection, schedule: Q01DX Z (ip), vehicle: saline",158 % of control
same,T/C,"dose: 5.0 mg/kg/injection, schedule: Q01DX Z (ip), vehicle: saline",92 % of control
